Laboratory results reported in PubChem BioAssay (NCI).
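Where inhibition never reached the appropriate level, the endpoint shown equals the highest concentration tested. Otherwise, values were interpolated linearly from a five-concentration, 48-hour dose response in 96-well plates. TGI: concentration producing complete growth inhibition.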

Legend:
Experiment in all cases: inhibition of tumour cell growth, NCI panel, 48 h
786-0 renal = tested on: 786-0 renal
A498 renal = tested on: A498 renal
A549 NSCLC = tested on: A549 NSCLC
DU-145 prostate = tested on: DU-145 prostate
HCC-2998 colon = tested on: HCC-2998 colon
HCT-116 colon = tested on: HCT-116 colon
HL-60(TB) leukemia = tested on: HL-60(TB) leukemia
HOP-92 NSCLC = tested on: HOP-92 NSCLC
HT29 colon = tested on: HT29 colon
LOX IMVI melanoma = tested on: LOX IMVI melanoma
M14 melanoma = tested on: M14 melanoma
MOLT-4 leukemia = tested on: MOLT-4 leukemia
NCI-H23 lung = tested on: NCI-H23 lung
NCI-H522 lung = tested on: NCI-H522 lung
OVCAR-5 ovarian = tested on: OVCAR-5 ovarian
SF-268 CNS = tested on: SF-268 CNS
SK-MEL-2 melanoma = tested on: SK-MEL-2 melanoma
SNB-19 CNS = tested on: SNB-19 CNS
SW-620 colon = tested on: SW-620 colon

| Structure (SMILES) | TGI (786-0 renal) [µM] | TGI (A498 renal) [µM] | TGI (A549 NSCLC) [µM] | TGI (DU-145 prostate) [µM] | TGI (HCC-2998 colon) [µM] | TGI (HCT-116 colon) [µM] | TGI (HL-60(TB) leukemia) [µM] | TGI (HOP-92 NSCLC) [µM] | TGI (HT29 colon) [µM] | TGI (LOX IMVI melanoma) [µM] | TGI (M14 melanoma) [µM] | TGI (MOLT-4 leukemia) [µM] | TGI (NCI-H23 lung) [µM] | TGI (NCI-H522 lung) [µM] | TGI (OVCAR-5 ovarian) [µM] | TGI (SF-268 CNS) [µM] | TGI (SK-MEL-2 melanoma) [µM] | TGI (SNB-19 CNS) [µM] | TGI (SW-620 colon) [µM] |
| --- | --- | --- | --- | --- | --- | --- | --- | --- | --- | --- | --- | --- | --- | --- | --- | --- | --- | --- | --- |
| O=C1CSC(c2ccccc2O)N1c1ccc(-n2c(-c3ccccc3)nc3ccccc3c2=O)cc1 (stereo not given) | > 100 | > 100 | > 100 | > 100 | > 100 | 35.9 | > 100 | 76.5 | > 100 | 69 | > 100 | > 100 | > 100 | 66 | > 100 | > 100 | 59.1 | > 100 | > 100 |
| CC(C)(C)OC(=O)CCCCCNC(=O)CCCCCNC(=O)CCC(CN(CC(=O)OCc1ccccc1)CC(=O)OCc1ccccc1)N(CC(=O)OCc1ccccc1)CC(=O)OCc1ccccc1 (stereo not given) | > 100 | > 100 | > 100 | > 100 | > 100 | > 100 | > 100 | > 100 | > 100 | > 100 | > 100 | > 100 | > 100 | > 100 | > 100 | > 100 | > 100 | > 100 | > 100 |
| O=C1NC(N/N=C\c2ccccc2)=N/C1=C/c1ccccc1 | > 100 | > 100 | > 100 | 78.8 | 40 | > 100 | > 100 | 66.6 | > 100 | > 100 | > 100 | 50 | 58.7 | 87 | 44.5 | > 100 | > 100 | 73.6 | > 100 |
| COc1ccccc1C(=O)N(Cc1ccccc1)c1ccc(Cl)c(C(=O)OC(C)C)c1 | > 100 | > 100 | > 100 | > 100 | > 100 | > 100 | 43.6 | > 45.5 | > 74 | > 100 | > 100 | 66.3 | > 82.8 | 18.3 | > 100 | > 100 | 40.5 | > 100 | > 100 |
| Cc1[nH]c(-c2ccccc2)c2nc(N(C)C)oc(=O)c12 | > 100 | > 100 | > 100 | > 100 | > 100 | > 100 | > 100 | > 100 | > 100 | > 100 | > 100 | > 100 | > 100 | > 100 | > 100 | > 100 | > 100 | > 100 | > 100 |
